One may read the pIC50 as the negative decadic logarithm of the IC50, by convention in mol/L. A higher pIC50 goes with a small IC50.

The values that follow come from patent US20210032257A1, “(E)-1-(4-(DIMETHYLAMINO)BUT-2-ENOYL)PYRROLIDIN-3-YL 4-((3-ISOPROPYL-5-METHYLPYRAZOLO[1,5-A]PYRIMIDIN-7-YL)AMINO)PIPERIDINE-1-CARBOXYLATE FOR INHIBITING CDK7” (Eli Lilly and Company, priority 2017, published 2021).

pIC50: −log10 of the molar value.

The target in assay [1] is CDK9/cyclinT1 (Homo sapiens, UniProt P50750). The assay can be described thus: Assay for inhibition of CDK9/CyclinT1 kinase activity (radiolabel filter binding).
CDK9/cyclinT1, sequence (P50750 whole entry): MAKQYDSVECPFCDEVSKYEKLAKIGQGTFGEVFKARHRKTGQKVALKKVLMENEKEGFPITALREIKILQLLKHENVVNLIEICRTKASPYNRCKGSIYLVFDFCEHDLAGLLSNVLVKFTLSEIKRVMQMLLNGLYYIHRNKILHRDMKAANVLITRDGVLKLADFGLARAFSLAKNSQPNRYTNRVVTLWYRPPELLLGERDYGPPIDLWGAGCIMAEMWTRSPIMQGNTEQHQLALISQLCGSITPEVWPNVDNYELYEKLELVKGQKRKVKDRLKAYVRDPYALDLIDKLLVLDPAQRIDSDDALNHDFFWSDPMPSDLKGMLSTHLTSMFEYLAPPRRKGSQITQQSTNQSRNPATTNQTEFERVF
CDK9/cyclinT1, sequence (O60563 whole entry partner): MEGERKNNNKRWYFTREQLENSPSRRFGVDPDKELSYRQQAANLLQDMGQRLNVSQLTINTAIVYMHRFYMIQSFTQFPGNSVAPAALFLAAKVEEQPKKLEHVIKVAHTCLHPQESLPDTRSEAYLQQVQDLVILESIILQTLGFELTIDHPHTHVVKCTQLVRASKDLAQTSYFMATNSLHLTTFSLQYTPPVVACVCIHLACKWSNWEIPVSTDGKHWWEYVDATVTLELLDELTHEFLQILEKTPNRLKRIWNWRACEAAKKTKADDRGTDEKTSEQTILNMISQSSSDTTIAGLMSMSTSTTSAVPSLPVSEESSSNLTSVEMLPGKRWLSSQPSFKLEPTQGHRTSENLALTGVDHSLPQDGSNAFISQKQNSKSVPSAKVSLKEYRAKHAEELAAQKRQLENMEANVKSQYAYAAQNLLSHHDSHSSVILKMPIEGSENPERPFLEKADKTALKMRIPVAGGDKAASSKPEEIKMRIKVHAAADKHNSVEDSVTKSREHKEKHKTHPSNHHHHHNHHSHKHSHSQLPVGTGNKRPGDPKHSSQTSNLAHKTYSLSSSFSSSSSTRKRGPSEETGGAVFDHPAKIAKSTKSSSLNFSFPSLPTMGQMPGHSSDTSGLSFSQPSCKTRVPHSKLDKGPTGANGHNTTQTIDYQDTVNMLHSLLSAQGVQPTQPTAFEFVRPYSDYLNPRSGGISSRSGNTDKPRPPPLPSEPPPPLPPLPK
Protocol: The IC50 determination for CDK7 and CDK9 are determined as follows.
The IC50 activity of the inhibitor is determined using radiolabel filter binding (FB) assays using the purified human recombinant enzyme in the presence of ATP and peptide substrate. The ATP concentrations chosen are at or near the enzyme Km for ATP. Reactions are carried out in 96 well polystyrene plates in a final volume of 25 μL per well. 5 μL of test compound in 20% DMSO, 10 μL of substrate solution (ATP//[^33P]ATP and CDK7/9 tide) and 10 μL of enzyme solution are mixed. […] The enzyme solution is prepared for a final concentration of 7.5 nM CDK9/cyclinT1 enzyme [Proqinase 0371-0345-1 (Lot 004)] diluted in kinase buffer. Test compounds are serially diluted 1:3 in 20% DMSO to create a 10 point curve at a starting concentration of 2 μM. 20% DMSO buffer alone without test compound is employed as high control (full activity in the absence of any inhibitor), 500 mM EDTA is used to determine the level of background in the absence of enzyme activity (low control). After mixing 5 μL of compounds with 10 μL of enzyme solution the plate is incubated for 0 or 180 minutes at 22° C. After that time the reaction is initiated by the addition of 10 μL substrate solution and incubated for 60 minutes at 22° C. […] 80 μL of MICROSCINT™ is added to each well and read on a scintillation counter after an hour. […]
Assay [2] has as its target CDK7/CyclinH/Mat1 (Homo sapiens, UniProt P50613). The assay can be described thus: Biochemical assay for inhibition of CDK7/CyclinH/MAT1 (radiolabel filter binding).
Protocol: The purpose of this assay is to measure the ability of a compound of the invention to inhibit CDK7/CyclinH/Mat1 complex kinase activity.
The IC50 activity of the inhibitor is determined using radiolabel filter binding (FB) assays using the purified human recombinant enzyme in the presence of ATP//[3^3P]ATP and peptide substrate. The ATP concentrations chosen are at or near the enzyme Km for ATP.
Reactions are carried out in 96 well polystyrene plates in a final volume of 25 μL per well. 5 μL of test compound in 20% DMSO, 10 μL of substrate solution (ATP/33PATP and CDK7/9 tide) and 10 μL of enzyme solution are mixed. […] The enzyme solution is prepared for a final concentration of 1 nM CDK7/CyclinH/Mat1 enzyme [Proqinase 0366-0360-4 Lot 002)] diluted in kinase buffer. Test compounds are serially diluted 1:3 in 20% DMSO to create a 10 point curve at a starting concentration of 20 μM. 20% DMSO buffer alone without test compound is employed as high control (full activity in the absence of any inhibitor), 500 mM EDTA is used to determine the level of background in the absence of enzyme activity (low control). After mixing 5 μL of compounds with 10 μL of enzyme solution the plate is incubated for 0 or 180 minutes at 22° C. After that time the reaction is initiated by the addition of 10 μL substrate solution and incubated for 50 minutes at 22° C. The reaction is terminated by the addition of 80 μL of cold 10% ortophosphoric solution. The Filter Plates (opaque, non-sterile filter plates) are prewashed with 10 μL of 10% orthophosphoric solution to each well. 100 μL of the mixture are transferred to a phosphocellulose filter and incubated at room temperature for 45 minutes. Filter plates are washed with 200 μL 0.5% orthophosphoric acid 3 times on a filter plate processor. Incorporation of 33Pi (counting of “cpm”) is determined by adding 80 μL of MICROSCINT™ to each well and read on a counter after an hour. Data is processed through a [sequence] […] ® tool. Data are analyzed using a 4-parameter nonlinear logistic equation (four-parameter logistic concentration-response curve): Y=bot+[(top-bot)/1+(x/IC50)slope] where Y=% inhibition, X=concentration yielding y % inhibition, Bottom=minimum value of y attained by curve, Top=maximum value of y attained by curve and Slope=steepness of curve at IC50. % Inh=[(median Max−x/median Max−median Min)]·100
IC50: concentration of compound that reduces a given response (ligand binding, enzyme response) by 50%.
For assay [3], the system named is HCT116 xenograft. The assay can be described thus: Xenograft Tumor Model. The class given is in vivo, mice. The following applies: HCT116, Colorectal, KMT2C; 25 mg/kg PO QDx21. As for the experimental part:
(§1) To evaluate in vivo efficacy of a test compound, multiple xenograft tumor models are utilized. Briefly, 5-10×10^6 tumor cells in a 1:1 MATRIGEL® mix (0.2 mL total volume) are injected subcutaneously into the female athymic nude mice (Envigo, Harlan laboratories) for a majority of xenograft tumor models. Alternate mice strains are utilized to establish MDAMB468 (NOD SCID Gamma, Jackson labs), CT26 and EMT6 (BALB/c, Envigo, Harlan Laboratories) xenografts. After allowing tumors to reach a desired size of ˜300-500 mm^3, animals are randomized into groups of 6-8 for efficacy studies. Test compound is administered via oral gavage (PO) at indicated doses and regimens. Tumor growth and body weight are monitored over time to evaluate efficacy and signs of toxicity.
(§2) Test compound is formulated in 5% N-methyl-2-pyrrolidone (NMP) in 1% hydroxyethylcellulose, 0.25% polysorbate 80, 0.05% antifoam in purified water (HEC) and administered by oral gavage (final volume 0.2 mL) at the doses indicated in Table 4. A test compound is formulated on a weekly basis and stored at 4° C. Vehicles are administered to the control groups according the schedules used above using a volume of 0.2 mL per dose. Mice are dosed via oral gavage and tumor samples are collected at termination and stored at −80° C.
(§3) Tumor size and body weight are recorded and analyzed bi-weekly. Blood is collected using DBS (dried blood spot) card 2 hours after dose and at termination. Tumors are collected at study termination, cut into 3 sections and either snap frozen for exposure and protein analysis, or placed in RNAlater® for RNA analysis. Tissue samples are frozen and stored at −80° C.
(§4) Delta T/C % is calculated when the endpoint tumor volume in a treated group is at or above baseline tumor volume. The formula is 100*(T−T0)/(C−C0). Here, T and C are mean endpoint tumor volumes in the treated or control group, respectively. TO and CO are mean baseline tumor volumes in those groups. *: Significant (p<0.05)

Assay [4] relates to EMT6 xenograft. The assay can be described thus: Xenograft Tumor Model. The class given is in vivo, mice. The following applies: EMT6, Breast; BALB/c; 20 mg/kg PO QDx28. As for the experimental part:
as §1, §2, §3, §4

For assay [5], the system named is H441 xenograft. In words: Xenograft Tumor Model. Type of assay: in vivo, mice. The following applies: H441, Lung; 20 mg/kg PO QDx35. Here is the method: as §1, §2, §3, §4
The subject of assay [6] is MKN45 xenograft. In words: Xenograft Tumor Model. Type of assay: in vivo, mice. The following applies: MKN45, Stomach, KMT2C; 20 mg/kg PO QDx35. Here is the method: as §1, §2, §3, §4
In assay [7] the test system is CT26 xenograft. The assay can be described thus: Xenograft Tumor Model. Conditions: CT26, Colorectal; BALB/c; 20 mg/kg PO QDx24. Type of assay: in vivo, mice. As for the experimental part:
as §1, §2, §3, §4

In assay [8] the test system is A2780 xenograft. In words: Xenograft Tumor Model. The class given is in vivo, mice. The following applies: A2780, Ovary, ARID1A; 20 mg/kg PO QDx35. Here is the method:
as §1, §2, §3, §4

The subject of assay [9] is MIAPACA2 xenograft. In words: Xenograft Tumor Model. The class given is in vivo, mice. The following applies: MIAPACA2, Pancreatic, ARID1A; 20 mg/kg PO QDx35. As for the experimental part:
as §1, §2, §3, §4

Assay [10] has as its system MDAMB231 xenograft. In words: Xenograft Tumor Model. The class given is in vivo, mice. The following applies: MDAMB231, Breast; 20 mg/kg PO QDx35. As for the experimental part: as §1, §2, §3, §4
The subject of assay [11] is H460 xenograft. In words: Xenograft Tumor Model. The following applies: H460, Lung, ARID1A; 20 mg/kg PO QDx35. Type of assay: in vivo, mice. As for the experimental part: as §1, §2, §3, §4
For assay [12], the system named is HCC1806 xenograft. In words: Xenograft Tumor Model. The class given is in vivo, mice. The following applies: HCC1806, Breast, KMT2C; 20 mg/kg PO QDx28. Here is the method:
as §1, §2, §3, §4

The subject of assay [13] is MDAMB468 xenograft. The assay can be described thus: Xenograft Tumor Model. Type of assay: in vivo, mice. The following applies: MDAMB468, Breast, ARID1A, RB1; NOD SCID Gamma; 20 mg/kg PO QDx28. Here is the method: as §1, §2, §3, §4
For assay [14], the system named is COLO205 xenograft. In words: Xenograft Tumor Model. The class given is in vivo, mice. The following applies: COLO205, Colorectal; 20 mg/kg PO QDx28. As for the experimental part:
as §1, §2, §3, §4

CDK7/CyclinH/Mat1, sequence (P50613 whole entry): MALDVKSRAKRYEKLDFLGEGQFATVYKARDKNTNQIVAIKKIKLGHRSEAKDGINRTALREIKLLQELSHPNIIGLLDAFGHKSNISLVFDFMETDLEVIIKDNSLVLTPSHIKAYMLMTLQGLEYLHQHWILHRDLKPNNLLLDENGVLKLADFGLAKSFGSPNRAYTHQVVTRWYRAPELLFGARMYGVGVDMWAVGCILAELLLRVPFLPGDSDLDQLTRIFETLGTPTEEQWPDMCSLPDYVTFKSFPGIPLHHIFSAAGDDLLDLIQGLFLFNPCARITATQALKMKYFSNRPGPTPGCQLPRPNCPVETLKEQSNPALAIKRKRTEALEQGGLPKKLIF
CDK7/CyclinH/Mat1, sequence (P51946 whole entry partner): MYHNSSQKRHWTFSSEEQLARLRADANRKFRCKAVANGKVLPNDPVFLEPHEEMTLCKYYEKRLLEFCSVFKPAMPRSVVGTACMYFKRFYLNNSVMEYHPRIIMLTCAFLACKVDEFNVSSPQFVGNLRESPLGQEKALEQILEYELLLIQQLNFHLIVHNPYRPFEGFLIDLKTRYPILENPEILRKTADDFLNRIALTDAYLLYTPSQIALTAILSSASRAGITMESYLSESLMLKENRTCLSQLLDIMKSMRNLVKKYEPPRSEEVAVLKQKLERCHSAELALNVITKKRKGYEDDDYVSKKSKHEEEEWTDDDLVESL
CDK7/CyclinH/Mat1, sequence (P51948 whole entry partner): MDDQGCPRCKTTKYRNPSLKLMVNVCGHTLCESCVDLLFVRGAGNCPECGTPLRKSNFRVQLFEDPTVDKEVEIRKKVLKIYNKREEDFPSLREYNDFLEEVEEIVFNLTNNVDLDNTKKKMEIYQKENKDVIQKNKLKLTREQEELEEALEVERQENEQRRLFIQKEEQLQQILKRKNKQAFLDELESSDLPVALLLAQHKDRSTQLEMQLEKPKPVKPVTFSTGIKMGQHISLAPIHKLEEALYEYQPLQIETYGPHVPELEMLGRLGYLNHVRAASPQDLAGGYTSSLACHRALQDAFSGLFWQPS

`Cc1cc(NC2CCN(C(=O)O[C@H]3CCN(C(=O)/C=C/CN(C)C)C3)CC2)n2ncc(C(C)C)c2n1` [Example 1, [(3S)-1-[(E)-4-(dimethylamino)but-2-enoyl]pyrrolidin-3-yl] 4-[(3-isopropyl-5-methyl-pyrazolo[1,5-a]pyrimidin-7-yl)amino]piperidine-1-carboxylate]: the pIC50 in assay [1] is 5.23; in [2] (IC50 in CDK7, 3 hours of preincubation of CDK7 enzyme), 8.63; in [2] (IC50 in CDK7, without preincubation), 7.76. Also, the “Avg. ΔT/C” value in assay [3] is −17%; in [4], 17%; in assay [5], 0%; in assay [6], 57%; in [7], 52%; in [8] it was −41%. In addition, the “Avg. ΔT/C” value is 10% in [9]; −25% in [10]; 16% in [11]; −87% in assay [12]; −91% in [13]; −4% in [14].
